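96-well plates; 48 h exposure; 5 concentrations. Endpoints by linear interpolation between flanking doses. Not reached: highest tested concentration assigned. Definition used: TGI = concentration required for complete inhibition of growth.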
Legend:
Experiment in all cases: NCI tumour cell line growth inhibition, 48 h
NCI-H226 lung = system: NCI-H226 lung
T-47D breast = system: T-47D breast
SF-268 CNS = system: SF-268 CNS
MDA-MB-435 = system: MDA-MB-435
OVCAR-3 ovarian = system: OVCAR-3 ovarian
IGROV1 ovarian = system: IGROV1 ovarian
NCI/ADR-RES ovarian = system: NCI/ADR-RES ovarian
HOP-92 NSCLC = system: HOP-92 NSCLC
SNB-19 CNS = system: SNB-19 CNS
MOLT-4 leukemia = system: MOLT-4 leukemia
LOX IMVI melanoma = system: LOX IMVI melanoma
KM12 colon = system: KM12 colon
RPMI-8226 leukemia = system: RPMI-8226 leukemia
ACHN renal = system: ACHN renal
UACC-62 melanoma = system: UACC-62 melanoma
TK-10 renal = system: TK-10 renal

Row | Structure (SMILES) | TGI (NCI-H226 lung) [µM] | TGI (T-47D breast) [µM] | TGI (SF-268 CNS) [µM] | TGI (MDA-MB-435) [µM] | TGI (OVCAR-3 ovarian) [µM] | TGI (IGROV1 ovarian) [µM] | TGI (NCI/ADR-RES ovarian) [µM] | TGI (HOP-92 NSCLC) [µM] | TGI (SNB-19 CNS) [µM] | TGI (MOLT-4 leukemia) [µM] | TGI (LOX IMVI melanoma) [µM] | TGI (KM12 colon) [µM] | TGI (RPMI-8226 leukemia) [µM] | TGI (ACHN renal) [µM] | TGI (UACC-62 melanoma) [µM] | TGI (TK-10 renal) [µM]
1 | Cc1ccsc1/C=N/NC1=NCCN1 | > 100 | > 100 | > 100 | > 100 | > 100 | > 100 | > 100 | > 100 | > 100 | > 100 | > 100 | > 100 | > 100 | > 100 | > 100 | > 100
2 | Cc1ccc(S(=O)(=O)N(CC(O)COc2ccccc2)c2c(F)c(F)cc(F)c2F)cc1 (stereo unspecified) | 57.9 | 78.3 | 38.2 | 36.5 | 54.1 | – | 42 | 34.2 | 82.1 | 2.25 | 37.6 | 70.6 | 41.4 | 54.1 | 37.5 | 84.1
3 | N/C(=N\N=C\c1cc2ccccc2s1)c1cnccn1 | > 100 | > 100 | > 100 | > 100 | > 100 | > 100 | > 100 | > 100 | > 100 | – | > 100 | > 100 | > 100 | > 100 | > 100 | > 100
4 | CC(=O)O[C@@H]1[C@H](OC2CCCCC2(c2ccccc2)c2ccccc2)O[N+]([O-])=CC12CCCCC2 (stereo partly specified) | 27.8 | 39.4 | 34.6 | 29.2 | 28.1 | 41.4 | 30.5 | 59.2 | – | > 100 | 46.2 | 31.2 | > 100 | 31.4 | 32.6 | 30.4
5 | O=[N+]([O-])c1cc(C2(N3CCCCC3)CCCCC2)sc1Br | 28.1 | 4.64 | 28.1 | 17 | 7.4 | 25.1 | 28.2 | 21.7 | 27.6 | 8.12 | 15.1 | 20.2 | 4.45 | 11.5 | 23.5 | 6.61
6 | COC(=O)C1OC(O[C@H]2CC[C@]3(C)[C@H]4CC=C5[C@@H]6CC(C)(C)CC[C@]6(C(=O)OC)CC[C@@]5(C)[C@]4(C)CC[C@H]3C2(C)C)C(O)C(O)C1O (stereo partly specified) | 37 | 40.9 | 39.3 | 30 | 15.5 | 37.4 | 36.1 | 34.7 | 31.1 | > 100 | 20 | 20.7 | 51.7 | 24.2 | 31 | –
7 | CC(C)C[S+]1C2=C([O-])CC(C)(C)CC2=Nc2ccccc21 (stereo unspecified) | > 100 | > 100 | > 100 | > 100 | > 100 | > 100 | > 100 | > 100 | > 100 | > 100 | > 100 | > 100 | > 100 | > 100 | > 100 | > 100
8 | CCOC(=O)Oc1cc2ccsc2c2c1c1ccccc1n2C(=O)OCC | > 100 | > 100 | > 100 | > 100 | > 100 | > 100 | > 100 | 44.7 | – | > 100 | > 100 | > 100 | > 100 | 98.1 | > 100 | > 100
9 | CN(C(=O)[C@H](NC(=O)OCc1ccccc1)c1ccccc1)C1CCCCC1N1CCCC1 (stereo partly specified) | 78 | > 100 | > 100 | > 100 | > 100 | > 100 | > 100 | > 100 | > 100 | > 100 | > 100 | > 100 | > 100 | > 100 | > 100 | > 100
10 | Nc1nc(Cl)cc(NCC2(CO)CCCCC2)n1 | > 100 | > 100 | > 100 | > 100 | > 100 | > 100 | > 100 | > 100 | > 100 | > 100 | > 100 | > 100 | > 100 | > 100 | > 100 | > 100
11 | COc1ccccc1N1CCN(CCCCNC(=O)c2ccc([N+](=O)[O-])o2)CC1 | 29.4 | 40.3 | 35.4 | 12 | 17.8 | 28.9 | > 100 | 40.4 | 25.5 | > 62.5 | 16.3 | 20.3 | > 68.4 | 25.2 | 18.4 | 18.3
12 | CC12NC(=C(C#N)C#N)C(C#N)=C3NC(N)=C(C#N)C(=C31)Oc1ccccc12 (stereo unspecified) | > 100 | > 100 | > 100 | > 100 | > 24.9 | > 100 | > 100 | > 74.1 | > 100 | > 31.6 | > 100 | > 100 | > 100 | > 100 | > 100 | > 100
13 | CC(=O)C(N1CCCCC1)C(O)(C(F)(F)F)C(F)(F)F (stereo unspecified) | > 100 | > 100 | – | > 100 | > 100 | > 100 | > 100 | > 100 | > 100 | > 100 | > 100 | > 100 | > 100 | > 100 | > 100 | > 100
14 | COC(=O)[C@H](CNC(=O)/C=C/c1ccc(OC(C)=O)c(OC(C)=O)c1)NC(=O)/C=C/c1ccc(OC(C)=O)c(OC(C)=O)c1 | > 100 | > 100 | – | > 100 | > 100 | > 100 | > 100 | > 100 | > 100 | > 100 | > 100 | > 100 | > 100 | > 100 | > 100 | –

From PubChem BioAssay (NCI)
